Assays:
[1] = test system: Human immune cells (CD14+ monocytes, CD1c+ mDCs, CD3+ T cells and CD19+ B cells); assay: Uptake of Cy3-labeled CpG-anti-miRs by human immune cells, flow cytometry; type: cell-based; conditions: for intracellular uptake: Cy3-labeled, human immune cells
Experimental: FIGS. 16A-16B. Cell-selective uptake of CpG-anti-miR146a. […] CpG-anti-miR146a was Cy3-labeled to detect the intracellular uptake by target cells using flow cytometry. FIG. 16A) Human immune cells were incubated with indicated concentrations of CpG-anti-miR146acY3 for 1 hr. The uptake by CD14+ monocytes, CD1c+ mDCs, CD3+ T cells and CD19+ B cells was measured using flow cytometry.
where * indicates a phosphorothioate linkage, mN indicates a 2′OMe modified nucleotide, and x indicates a linker described herein. CpG-anti-miRNAs were Cy3-labeled to detect the intracellular uptake by target cells using flow cytometry. […] Treatment of these compounds reduces the corresponding miR expression in human and mouse myeloid cells (FIGS. 17A-17F, 18A-18F, 19A-19H).

IRAK1 (miR146a target) = assay: Immunoblot of downstream target IRAK1; type: cell-based, mouse or human; conditions: for IRAK1 (downstream target regulation): 500 nM, 48 hrs, RAW264.7 or A20 cells
Experimental: (§1) FIGS. 20A-20D. Effects of CpG-anti-miRNAs on downstream targets. […] Mouse RAW264.7 or human MV4-11 cells were incubated with 250 nM or 500 nM of CpG-anti-miR155, CpG-anti-miR125b, or CpG-anti-miR146a, or 500 nM of CpG-scramble for 48 h, then the cell lysates were collected and electrophoresed and immunoblotted by antibodies against SHIP1 (miR155 target) (FIG. 20A), IRF4 (miR125b target) (FIG. 20B), or IRAK1 (miR146a target) (FIG. 20C). The band intensities were normalized against β-actin and quantified. Fold induction over the control protein levels are indicated below the blot. FIG. 20D) MV4-11 cells were incubated with 500 nM of CpG-anti-miR155, CpG-antimiR125b, CpG-anti-miR146a, or CpG-scramble for 24 h, then cell lysates were collected and electrophoresed and immunoblotted to detect activated caspase 3 indicating induction of apoptosis.
(§2) FIGS. 21A-21H. Comparing the inhibition effects of CpG-anti-miR and GpC-anti-miR. […] The cells were incubated with 100 nM CpG-anti-miRs or GpC-anti-miRs for 18 hrs. […] RAW264.7 (FIGS. 21E,21G) or A20 cells (FIGS. 21F,21H) were incubated with 500 nM of CpG-anti-miR155, GpC-anti-miR155, or CpG-anti-miR146a, GpC-anti-miR146a for 48 hrs, then the cell lysates were collected and immunoblotted using antibodies against SHIP1 (miR155 target) or IRAK1 (miR146a target)
(§3) Mouse RAW264.7 or human MV4-11 cells were incubated with 250 nM or 500 nM of CpGanti-miR155, CpG-anti-miR125b, or CpG-anti-miR146a, or 500 nM of CpG-scramble for 48 h, then the cell lysates were collected and electrophoresed and immunoblotted by antibodies against SHIP1 (miR155 target) (FIG. 20A), IRF4 (miR125b target) (FIG. 20B), or IRAK1 (miR146a target) (FIG. 20C). The band intensities were normalized against β-actin and quantified. Fold induction over the control protein levels are indicated below the blot. FIG. 20D) MV4-11 cells were incubated with 500 nM of CpG-anti-miR155, CpG-antimiR125b, CpG-anti-miR146a, or CpG-scramble for 24 h, then cell lysates were collected and electrophoresed and immunoblotted to detect activated caspase 3 indicating induction of apoptosis. […]

[2] = test system: human AML cells KG1a, MOLM13, and MOLM14; assay: Uptake of Cy3-labeled CpG-anti-miR146a by cultured AML cells; type: cell-based; conditions: even at low concentrations
miR-146a = assay: Mature miR-146a expression by TAQMAN qPCR; type: cell-based, human and mouse; conditions: 100 nM
Experimental: FIGS. 19A-19H. Inhibitory effects of CpG-anti-miR146a. […] Mouse RAW264.7 (macrophages) (FIG. 19A) and DC2.4 (dendritic cells) (FIG. 19B) as well as human MV4-11 (FIG. 19C) and KG1a AML (FIG. 19D) cells were incubated with 100 nM CpG-anti-miR146a or CpG-scrambled RNA (negative control) for 18 h and then treated with 1 vg/ml LPS for 4 h. KG1a, MOLM13 (FIG. 19E), and MOLM14 (FIG. 19F) cells were incubated with 100 nM CpG-anti-miR146a or CpG-scrambled RNA for 18 h. FIGS. 19G-19H) Mouse CMM AML cells (FIG. 19G) and A20 lymphoma cells (FIG. 19H) were incubated with 100 nM CpG-miR146a mimic for 18 h. Mature miR-146a expression was measured using TAQMAN® qPCR assay and normalized to snoRNA234 levels. miR-146a expression level in untreated samples was set as 1.0. Data are shown as means±SEM (n=3). *P<0.05.
as §2
The cells were incubated with 100 nM CpG-anti-miRs or GpC-anti-miRs for 18 hrs. […] RAW264.7 (FIGS. 21E,21G) or A20 cells (FIGS. 21F,21H) were incubated with 500 nM of CpG-anti-miR155, GpC-anti-miR155, or CpG-anti-miR146a, GpC-anti-miR146a for 48 hrs, then the cell lysates were collected and immunoblotted using antibodies against SHIP1 (miR155 target) or IRAK1 (miR146a target).

IRF4 (miR125b target) = assay: Immunoblot of downstream target IRF4; type: cell-based, mouse or human; conditions: 250 nM or 500 nM, 48 h; RAW264.7 or MV4-11 cells
Experimental: as §1
as §3, with “blot.” for “blot. FIG. 20D) MV4-11 cells were incubated with 500 nM of CpG-anti-miR155, CpG-antimiR125b, CpG-anti-miR146a, or CpG-scramble for 24 h, then cell lysates were collected and electrophoresed and immunoblotted to detect activated caspase 3 indicating induction of apoptosis.”

miR-125b = assay: Mature miR-125b expression by TAQMAN qPCR; type: cell-based, human and mouse; conditions: 100 nM, 18 h; various cell models
Experimental: FIGS. 18A-18F. Inhibitory effects of CpG-anti-miR125b. […] RAW264.7 (FIG. 18A), DC2.4 (FIG. 18B), and MV4-11 (FIG. 18C) cells were incubated with 100 nM CpG-anti-miR125b or CpG-scrambled RNA (negative control) for 18 h and then treated with 1 vg/mILPS for 4 h. Human AML cells—KG1a (FIG. 18D), MOLM13 (FIG. 18E), and MOLM14 (FIG. 18F)—were incubated with 100 nM CpG-anti-miR125b or control CpG-scrambled RNA for 18 h. Mature miR-125b expression was measured using TAQMAN® qPCR assay and normalized to snoRNA234 levels. miR-125b expression level in untreated samples was set as 1.0. Data are shown as means±SEM (n=3). *P<0.05.

miR-126 = miR-126 expression in K562 and MV4-11 cells with miR-126 inhibitors or mimics; type: cell-based; conditions: 500 nM, 24 hours
Experimental: FIGS. 26A-26E. Effective knockdown of miR-126 with miR-126 inhibitors conjugated with CpG, GpC and PS, and effective over-expression with miR-126 mimics in K562 and MV4-11 cells. K562 and MV4-11 cells were treated with miR-126 inhibitors conjugated with CpG, GpC, PS (FIGS. 26A-26B) or miR-126 mimics (615, 616 and 617) (FIGS. 26C-26D) (500 nM) for 24 hours, and miR-126 expression was measured in these cells. […] FIG. 26E) Tabulation of sequence set forth herein.
Effective knockdown of miR-126 with miR-126 inhibitors conjugated with CpG, GpC and PS, and effective over-expression with miR-126 mimics in K562 and MV4-11 cells. K562 and MV4-11 cells were treated with miR-126 inhibitors conjugated with CpG, GpC, PS (FIGS. 26A-26B) or miR-126 mimics (615, 616 and 617) (FIGS. 26C-26D) (500 nM) for 24 hours, and miR-126 expression was measured in these cells.

miR-155 = assay: Mature miR-155 expression by TAQMAN qPCR; type: cell-based, human and mouse; conditions: 100 nM
Experimental: FIGS. 17A-17F. Inhibitory effects of CpG-anti-miR155. […] Mouse RAW264.7 (macrophages) (FIG. 17A) and DC2.4 (dendritic cells) (FIG. 17B) as well as human MV4-11 AML cells (FIG. 17C) were incubated with 100 nM CpG-anti-miR155 or CpG-scrambled RNA (negative control) for 18 h and then treated with 1 vg/ml LPS for 4 h. KG1a (FIG. 17D), MOLM13 (FIG. 17E), and MOLM14 (FIG. 17F) cells were incubated with 100 nM CpG-anti-miR155 or CpG-scrambled RNA for 18 h. Mature miR-155 expression was measured using TAQMAN® qPCR assay and normalized to snoRNA234 levels. miR-155 expression level in untreated samples was set as 1.0. Data are shown as means±SEM (n=3). *P<0.05.
as §2
The cells were incubated with 100 nM CpG-anti-miRs or GpC-anti-miRs for 18 hrs. […]

SHIP1 (miR155 target) = assay: Immunoblot of downstream target SHIP1; type: cell-based, mouse or human
Experimental: as §1
FIGS. 21A-21H. Comparing the inhibition effects of CpG-anti-miR and GpC-anti-miR. […]
Mouse RAW264.7 or human MV4-11 cells were incubated with 250 nM or 500 nM of CpGanti-miR155, CpG-anti-miR125b, or CpG-anti-miR146a, or 500 nM of CpG-scramble for 48 h, then the cell lysates were collected and electrophoresed and immunoblotted by antibodies against SHIP1 (miR155 target) (FIG. 20A), IRF4 (miR125b target) (FIG. 20B), or IRAK1 (miR146a target) (FIG. 20C). The band intensities were normalized against β-actin and quantified. […]

[3] = 250 nM or 500 nM, 48 h, RAW264.7 or MV4-11 cells
[4] = 18 h, human and mouse myeloid cells

Substance: 5′ G*G*T GCA TCG ATG CAGG*G*G* G*G xxxxx mC*mC*mC*mA*mU*mG*mG*mA*mA*mU*mU*mC*mA*mG*mU*mU*mC*mU*mC*mA 3′ [CpG-anti-miR146a]
- intracellular uptake [1]: uptake of these compounds was observed
- internalization by target immune and leukemic cells ([1]; without any transfection reagents): Dose and time dependent internalization
- IRAK1 protein level (IRAK1 (miR146a target); [3]): upregulated
- IRAK1 (downstream target regulation) (IRAK1 (miR146a target)): regulates downstream targets
- internalization by cultured AML cells [2]: rapidly internalize
- miR-146a expression (miR-146a; [4]): reduces miR-146a expression
- miR-146a expression (miR-146a; 18 hrs, RAW264.7 and A20 cells): reduces miR155 or miR-146a expression

Substance: 5′ G*G*T GCA TCG ATG CAGG*G*G* G*G xxxxx mU*mC*mA*mC*mA*mA*mG*mU*mU*mA*mG*mG*mG*mU*mC*mU*mC*mA*mG*mG*mG*mA 3′ [CpG-anti-miR125b]
- intracellular uptake [1]: uptake of these compounds was observed
- IRF4 protein level (downstream target regulation) (IRF4 (miR125b target)): regulate downstream targets
- miR-125b expression (miR-125b): reduces miR-125b expression

Substance: G*G*T GCA TGC ATG CAGG*G*G* G*G (SEQ ID NO: 2) xxxxx mC*mC*mC*mA*mT*mG*mG*mA*mA*mT*mT*mC*mA*mG*mT*mT*mC*mT*mC*mA (SEQ ID NO: 36) 3′ [GpC-anti-miR146a]
- IRAK1 (downstream target regulation) (IRAK1 (miR146a target)): regulates downstream targets
- miR-146a expression (miR-146a; 18 hrs, RAW264.7 and A20 cells): reduces miR155 or miR-146a expression

Substance: 5′ G*G*T*G*C*A*T*C*G*A*T*G*C*A*G*G*G*G*G*G (SEQ ID NO: 3) xxxxx mC*mG*mC* mA*mU*mU* mA*mU*mU* mA*mC*mU* mC*mA*mC* mG*mG*mU* mA*mC*mG*mA (SEQ ID NO: 48) 3′ [completely PS-modified oligo]
- miR-126 expression (knockdown by inhibitors) (miR-126): succeeds in blocking miR126

Substance: 5′G*G*T GCA TCG ATG CAGG*G*G* G*G xxxxx mA*mC*mC*mC*mC*mU*mA*mU*mC*mA*mC*mA*mA*mU*mU*mA*mG*mC*mA*mU*mU*mA*mA 3′ [CpG-anti-miR155]
- intracellular uptake [1]: uptake of these compounds was observed
- miR-155 expression (miR-155; [4]): reduces miR-155 expression
- miR155 expression (miR-155; 18 hrs, RAW264.7 and A20 cells): reduces miR155 or miR-146a expression
- SHIP1 protein level (SHIP1 (miR155 target); [3]): upregulated
- SHIP1 (downstream target regulation) (SHIP1 (miR155 target); 500 nM, 48 hrs, RAW264.7 or A20 cells): regulates downstream targets

Substance: 5′ G*GT. GCA TGC ATG CAG G*G*G*G*G (SEQ ID NO: 2) xxxxx mCmGmC mAmUmU mAmUmU mAmCmU mCmAmC mGmGmU mAmCmG mA (SEQ ID NO: 17) 3′ [GpC]
- miR-126 expression (knockdown by inhibitors) (miR-126): succeeds in blocking miR126

— patent publication US11591596B2, “Compounds and compositions including phosphorothioated oligodeoxynucleotide, and methods of use thereof” (City of Hope, priority 2015, dated 2023)
